From PubChem BioAssay AID192 (DTP/NCI, 2004)
“And” between values parts separate entries of the source, which are not always exact repeats. Identical values can stand only once. Toxic doses and inconclusive results are not listed.

System: BDF1 mice, B16 melanoma ip, median survival T/C
Experiment: NCI In Vivo Anticancer Drug Screen. Data for tumor model B16 Melanoma (intraperitoneal) in B6D2F1 (BDF1) mice
Conditions: endpoint: median survival time, higher = longer survival
Description: The antitumor activity of compounds was measured in mice bearing transplantable tumors. Survival or tumor size were measured and the results are expressed as the measurement made in the treated group (T) divided by the measurement made in the vehicle treated control group (C). The tumor model used in this assay is B16 Melanoma (intraperitoneal) in B6D2F1 (BDF1) mice

[1] = dose: 12.5 mg/kg/injection, schedule: Q01DX009 (ip), vehicle: saline with Tween-80
[2] = dose: 50.0 mg/kg/injection, schedule: Q01DX009 (ip), vehicle: Klucel (hydroxypropylcellulose) (HPC)
[3] = dose: 100.0 mg/kg/injection, schedule: Q01DX009 (ip), vehicle: Klucel (hydroxypropylcellulose) (HPC)
[4] = dose: 200.0 mg/kg/injection, schedule: Q01DX009 (ip), vehicle: Klucel (hydroxypropylcellulose) (HPC)
[5] = dose: 100.0 mg/kg/injection, schedule: Q01DX009 (ip), vehicle: saline with Tween-80
[6] = dose: 200.0 mg/kg/injection, schedule: Q01DX009 (ip), vehicle: saline with Tween-80
[7] = dose: 400.0 mg/kg/injection, schedule: Q01DX009 (ip), vehicle: saline with Tween-80
[8] = dose: 8.0 mg/kg/injection, schedule: Q01DX009 (ip), vehicle: saline with Tween-80
[9] = dose: 6.25 mg/kg/injection, schedule: Q01DX009 (ip), vehicle: Klucel (hydroxypropylcellulose) (HPC)
[10] = dose: 12.5 mg/kg/injection, schedule: Q01DX009 (ip), vehicle: Klucel (hydroxypropylcellulose) (HPC)
[11] = dose: 25.0 mg/kg/injection, schedule: Q01DX009 (ip), vehicle: Klucel (hydroxypropylcellulose) (HPC)
[12] = dose: 12.5 mg/kg/injection, schedule: Q01DX009 (ip), vehicle: saline
[13] = dose: 25.0 mg/kg/injection, schedule: Q01DX009 (ip), vehicle: saline with Tween-80
[14] = dose: 25.0 mg/kg/injection, schedule: Q01DX009 (ip), vehicle: saline
[15] = dose: 50.0 mg/kg/injection, schedule: Q01DX009 (ip), vehicle: saline with Tween-80
[16] = dose: 50.0 mg/kg/injection, schedule: Q01DX009 (ip), vehicle: saline

COc1cc(/C=C/c2nc3ccccc3nc2/C=C/c2cc(OC)c(OC)c(OC)c2)cc(OC)c1OC
T/C (dose: 6.25 mg/kg/injection, schedule: Q01DX009 (ip), vehicle: saline with Tween-80): 106 % of control
T/C [1]: 97 % of control

CCCCNC(=O)OCC(C)(CCC)COC(N)=O (centres undefined)
T/C [2]: 92 % of control
T/C [3]: 92 % of control
T/C [4]: 94 % of control

CCC1(O)CC2CN(CCc3c([nH]c4ccccc34)C(C(=O)OC)(c3cc4c(cc3OC)N(C)C3C(O)(C(=O)NCCSSCCNC(=O)C5(O)C(O)C6(CC)C=CCN7CCC8(c9cc(C%10(C(=O)OC)CC%11CN(CCc%12c%10[nH]c%10ccccc%12%10)CC(O)(CC)C%11)c(OC)cc9N(C)C58)C76)C(O)C5(CC)C=CCN6CCC43C65)C2)C1 (centres undefined)
T/C (dose: 0.13 mg/kg/injection, schedule: Q04DX003 (ip), vehicle: saline): 122 % of control
T/C (dose: 0.64 mg/kg/injection, schedule: Q01DX009 (ip), vehicle: saline): 184 % of control
T/C (dose: 1.0 mg/kg/injection, schedule: Q04DX003 (ip), vehicle: saline): 151 % of control
T/C (dose: 1.08 mg/kg/injection, schedule: Q01DX009 (ip), vehicle: saline): 189 % of control
T/C (dose: 648.0 micrograms/kg/injection, schedule: Q04DX003 (ip), vehicle: saline): 158 % of control and 181 % of control
T/C (dose: 1080.0 micrograms/kg/injection, schedule: Q04DX003 (ip), vehicle: saline): 183 % of control and 203 % of control
T/C (dose: 1800.0 micrograms/kg/injection, schedule: Q04DX003 (ip), vehicle: saline): 184 % of control and 203 % of control

CC1OC(Oc2c(-c3cc(O)c(O)c(O)c3)oc3cc(O)cc(O)c3c2=O)C(O)C(O)C1O (centres undefined)
T/C [5]: 112 % of control
T/C [6]: 113 % of control
T/C [7]: 90 % of control

O=c1nc(NC(=S)Nc2ccn(C3OC(CO)C(O)C3O)c(=O)n2)ccn1C1OC(CO)C(O)C1O (centres undefined)
T/C (dose: 4.0 mg/kg/injection, schedule: Q01DX009 (ip), vehicle: saline sonified): 97 % of control
T/C (dose: 8.0 mg/kg/injection, schedule: Q01DX009 (ip), vehicle: saline sonified): 102 % of control
T/C [8]: 95 % of control
T/C (dose: 16.0 mg/kg/injection, schedule: Q01DX009 (ip), vehicle: saline sonified): 100 % of control
T/C (dose: 16.0 mg/kg/injection, schedule: Q01DX009 (ip), vehicle: saline with Tween-80): 108 % of control
T/C (dose: 32.0 mg/kg/injection, schedule: Q01DX009 (ip), vehicle: saline sonified): 102 % of control
T/C (dose: 32.0 mg/kg/injection, schedule: Q01DX009 (ip), vehicle: saline with Tween-80): 95 % of control
T/C (dose: 64.0 mg/kg/injection, schedule: Q01DX009 (ip), vehicle: saline with Tween-80): 104 % of control

CCCCNC(C)(C)COC(=O)/C=C/c1ccc(OCCCC)cc1
T/C (dose: 12.5 mg/kg/injection, schedule: Q01DX009 (ip), vehicle: saline sonified): 97 % of control
T/C (dose: 25.0 mg/kg/injection, schedule: Q01DX009 (ip), vehicle: saline sonified): 97 % of control
T/C (dose: 50.0 mg/kg/injection, schedule: Q01DX009 (ip), vehicle: saline sonified): 104 % of control
T/C (dose: 100.0 mg/kg/injection, schedule: Q01DX009 (ip), vehicle: saline sonified): 93 % of control

CCCCCCCCCCCC(O)CCCC (centres undefined)
T/C [9]: 99 % of control
T/C [10]: 104 % of control

C=NCC#N
T/C [5]: 93 % of control
T/C [6]: 88 % of control
T/C [7]: 93 % of control

Cc1ccc(NC(=S)NN)cc1C
T/C [11]: 100 % of control
T/C [2]: 96 % of control
T/C [3]: 96 % of control

ClCC[N+]12CC[N+](CCCl)(CC1)C2
T/C [1]: 95 % of control and 100 % of control
T/C [12]: 112 % of control and 95 % of control
T/C [13]: 104 % of control
T/C [14]: 109 % of control and 105 % of control
T/C [15]: 110 % of control and 116 % of control
T/C [16]: 124 % of control and 101 % of control
T/C (dose: 100.0 mg/kg/injection, schedule: Q01DX009 (ip), vehicle: saline): 101 % of control
T/C (dose: 200.0 mg/kg/injection, schedule: Q01DX009 (ip), vehicle: saline): 100 % of control
T/C (dose: 400.0 mg/kg/injection, schedule: Q01DX009 (ip), vehicle: saline): 107 % of control

CCCCCCCCCCCCCCCC[N+](C)(C)c1nc(Cl)nc(Cl)n1
T/C (dose: 2.0 mg/kg/injection, schedule: Q01DX009 (ip), vehicle: saline with Tween-80): 97 % of control
T/C (dose: 4.0 mg/kg/injection, schedule: Q01DX009 (ip), vehicle: saline with Tween-80): 100 % of control
T/C [8]: 95 % of control

CCOC(=O)c1cc(C(=O)OCC)c(=O)oc1OCC
T/C [13]: 102 % of control
T/C [15]: 100 % of control
T/C [5]: 100 % of control

CCCCN(C)N=Nc1c(C(N)=O)n[nH]c1C
T/C [1]: 110 % of control
T/C [13]: 105 % of control
T/C [15]: 122 % of control
T/C (dose: 50.0 mg/kg/injection, schedule: Q04DX003 (ip), vehicle: saline with Tween-80): 100 % of control
T/C (dose: 100.0 mg/kg/injection, schedule: Q04DX003 (ip), vehicle: saline with Tween-80): 105 % of control
T/C (dose: 200.0 mg/kg/injection, schedule: Q04DX003 (ip), vehicle: saline with Tween-80): 113 % of control

CNc1ncnc2c1cnn2C
T/C (dose: 10.0 mg/kg/injection, schedule: Q01DX009 (ip), vehicle: Klucel (hydroxypropylcellulose) (HPC)): 97 % of control
T/C (dose: 20.0 mg/kg/injection, schedule: Q01DX009 (ip), vehicle: Klucel (hydroxypropylcellulose) (HPC)): 89 % of control
T/C (dose: 40.0 mg/kg/injection, schedule: Q01DX009 (ip), vehicle: Klucel (hydroxypropylcellulose) (HPC)): 89 % of control

CCCSc1ccccc1N1CCN(CC(COC)OC)CC1 (centres undefined)
T/C [12]: 101 % of control
T/C [14]: 100 % of control
T/C [16]: 96 % of control

Cc1ccc(Cl)cc1NC(=O)c1ccccc1
T/C (dose: 75.0 mg/kg/injection, schedule: Q01DX009 (ip), vehicle: Klucel (hydroxypropylcellulose) (HPC)): 93 % of control
T/C (dose: 150.0 mg/kg/injection, schedule: Q01DX009 (ip), vehicle: Klucel (hydroxypropylcellulose) (HPC)): 104 % of control
T/C (dose: 300.0 mg/kg/injection, schedule: Q01DX009 (ip), vehicle: Klucel (hydroxypropylcellulose) (HPC)): 105 % of control

CNCc1ccccc1C(O)c1ccc(Cl)cc1 (centres undefined)
T/C [9]: 102 % of control
T/C [10]: 100 % of control
T/C [11]: 97 % of control
T/C [2]: 102 % of control

O=C1NC(c2c(Cl)cccc2Cl)Nc2ccccc21 (centres undefined)
T/C [3]: 96 % of control
T/C [4]: 103 % of control
T/C (dose: 400.0 mg/kg/injection, schedule: Q01DX009 (ip), vehicle: Klucel (hydroxypropylcellulose) (HPC)): 90 % of control

COc1cccc2c1C(=O)c1c(O)c3c(c(O)c1C2=O)C[C@@](O)(C(C)=O)C[C@@H]3OC1CC(N(Cc2ccccc2)Cc2ccccc2)C(O)C(C)O1 (some centres undefined)
T/C (dose: 12.5 mg/kg/injection, schedule: Q01DX001 (ip), vehicle: water): 103 % of control
T/C (dose: 25.0 mg/kg/injection, schedule: Q01DX001 (ip), vehicle: water): 113 % of control
T/C (dose: 100.0 mg/kg/injection, schedule: Q01DX001 (ip), vehicle: water): 150 % of control

Nc1n[n+](-c2ccc(Cl)cc2)no1
T/C (dose: 3.12 mg/kg/injection, schedule: Q01DX009 (ip), vehicle: water): 102 % of control
T/C (dose: 6.25 mg/kg/injection, schedule: Q01DX009 (ip), vehicle: water): 107 % of control
T/C (dose: 12.5 mg/kg/injection, schedule: Q01DX009 (ip), vehicle: water): 109 % of control
T/C (dose: 50.0 mg/kg/injection, schedule: Q01DX009 (ip), vehicle: water): 117 % of control

Cc1cc(=O)n2c3c(c(N)ccc13)OC2
T/C [3]: 100 % of control
T/C [4]: 92 % of control

NC(=O)c1ccc[n+](Cc2c(Cl)cccc2Cl)c1
T/C (dose: 0.75 mg/kg/injection, schedule: Q01DX009 (ip), vehicle: saline): 99 % of control
T/C (dose: 1.5 mg/kg/injection, schedule: Q01DX009 (ip), vehicle: saline): 96 % of control and 102 % of control
T/C (dose: 3.0 mg/kg/injection, schedule: Q01DX009 (ip), vehicle: saline): 102 % of control and 111 % of control
T/C (dose: 6.0 mg/kg/injection, schedule: Q01DX009 (ip), vehicle: saline): 98 % of control
T/C (dose: 12.0 mg/kg/injection, schedule: Q01DX009 (ip), vehicle: saline): 98 % of control and 99 % of control
T/C (dose: 24.0 mg/kg/injection, schedule: Q01DX009 (ip), vehicle: saline): 105 % of control

O=C(NC(Cc1ccccc1)C(=O)CCl)OCc1ccccc1 (centres undefined)
T/C [10]: 100 % of control
T/C [11]: 97 % of control
